# In US20190060298A1, “NEW DRUG FOR THE TREATMENT AND/OR PREVENTION OF DEPRESSIVE DISORDERS” (SORBONNE UNIVERSITE, priority 2013, published 2019):
# Experiments:
# [1] = tested on: Sprague-Dawley rats; test: Sweet water consumption after sensitization paradigm; format: in vivo; details: V animals; TEMPOL 288 μmol/kg/day 15 days from D11; after three weeks of CMS applied at D31
# Description: Sprague-Dawley rats were subjected to chronic social defeat (CSD) and then, four weeks later, to three weeks of chronic mild stress (SSP rats). The chronic mild stress protocol (CMS) was performed as previously described (see Blugeot et al., 2011). The control rats were control intruders (not subjected to CSD) not exposed to the three weeks of CMS (C rats).
# The CMS protocol is derived from that described by Willner et al. (1992). Briefly, various mild stresses were applied every day, over a period of three weeks. Briefly, from Monday to Friday, every morning, animals were placed in a small cage (10×16×15 cm) for 1 hour. In the afternoon, they were shaken for 10 min (Monday and Thursday), placed in a small cage containing water (2 cm high, Tuesday) or placed in another cage for 4 hours (Wednesday and Friday). Every night, the cage was inclined (45°, Tuesday and Thursday) or contained wet bedding (Wednesday and Friday). On Saturday and Sunday, the rats were subjected to a reversed dark/light cycle for 30 min, every three hours.
# Experiments were performed as described by Becker et al. (2008) and Blugeot et al. (2011). Sucrose and water intakes were measured daily at 9:00 am. Weekly sweet water consumption was expressed as a percentage of control values (measured one week before the beginning of the conditioning sessions). Sweet water consumption indicated a preference for sucrose. […]
# [2] = tested on: catalase; test: Catalase activity in hippocampus; format: in vivo, Sprague-Dawley rats; details: 288 μmol/kg/day, 15 days from D11; D31
# Description: (§1) The animals were decapitated and the left hippocampus was homogenized in ice-cold buffer (20 mM Hepes pH 7.2, 1 mM EGTA, 210 mM mannitol, 70 mM sucrose). Homogenates were centrifuged and the supernatants were retained for analysis. Catalase and total SOD activities were immediately determined with commercially available kits (Cayman Chemical, Ann Arbor, Mich., USA), in accordance with the manufacturer's instructions. SOD and catalase specific activities are expressed as units per mg of hippocampus and as nmoles of formaldehyde formed per minute per mg of hippocampal tissue, respectively.
# (§2) Tempol (4-hydroxy-2,2,6,6-tetramethylpiperidine 1-oxyl), which was administered at a dose of 288 μmol/kg/day [Sigma-Aldrich, St Louis, Mo., USA]), was dissolved in distilled water and delivered via ALZET osmotic mini-pumps (2002, Charles River Laboratories, France). Tempol- or distilled water-filled pumps were implanted subcutaneously on the back of intruder rats under light anesthesia with isofluorane, 11 days after completion of the social-defeat procedure (D11), and were left in place for 15 days.
# [3] = tested on: glutathione peroxidase (GPx); test: Glutathione peroxidase activity in hippocampus; format: in vivo, Sprague-Dawley rats; details: 288 μmol/kg/day, 15 days from D11; D31
# Description: The right hippocampus was homogenized in ice-cold buffer (Tris-HCl 50 mM pH 7.5, 150 mM NaCl, 1 mM EDTA) and used for TBARS and glutathione peroxidase (GPx) assays.
# For the TBARS assay, protease inhibitors (50 μl/ml), DOC (1%), SDS (0.1%) and Triton® X-100 (0.5%) were added immediately in ice-cold buffer. For the GPx assay, 0.1 M dithiothreitol was added immediately in ice-cold buffer. The homogenates were centrifuged and the supernatants were retained for analysis. Lipid peroxidation was assessed by measuring TBARS formation with a commercial assay kit (Cayman Chemical, Ann Arbor, Mich., USA), in accordance with the manufacturer's instructions. TBARS concentration was calculated from an MDA standard curve and normalized. Total GPx activity in the homogenate was measured in accordance with the kit manufacturer's instructions (Cayman Chemical, Ann Arbor, Mich., USA). GPx specific activity is expressed as nmoles of NADPH consumed per minute per mg of hippocampal tissue. No difference in hippocampal weight was observed between defeated, vulnerable, non-vulnerable and control animals.
# Tempol (4-hydroxy-2,2,6,6-tetramethylpiperidine 1-oxyl), which was administered at a dose of 288 μmol/kg/day [Sigma-Aldrich, St Louis, Mo., USA]), was dissolved in distilled water and delivered via ALZET osmotic mini-pumps (2002, Charles River Laboratories, France). […]
# [4] = tested on: oxidative stress; test: Oxidative stress state in hippocampus after chronic social defeat; format: in vivo, Sprague-Dawley rats; details: vulnerable (V) rats; 288 μmol/kg/day via osmotic mini-pump for 15 days from D11; measured D31
# Description: The social-defeat procedure (CSD) (D-3 to DO) was performed as previously described (see Becker et al., 2001; Blugeot et al., 2011).
# Briefly, this procedure involved subjecting the same pairs of residents and intruders to four daily conditioning sessions. The 45-min conditioning sessions were divided into two consecutive periods. During period I (30 min), intruders were placed individually in a protective cage within the resident animal's home cage. The protective cage allowed unrestricted visual, auditory, and olfactory contact with the resident but prevented close physical contact. […]
# as §1, with “Homogenates were centrifuged and the supernatants were retained for analysis.” left out, “respectively. […]” for “respectively.”
# For the TBARS assay, protease inhibitors (50 μl/ml), DOC (1%), SDS (0.1%) and Triton® X-100 (0.5%) were added immediately in ice-cold buffer. […] TBARS concentration was calculated from an MDA standard curve and normalized. […]
# [5] = tested on: HPA axis; test: Activity of the HPA (corticotropic) axis; format: in vivo, Sprague-Dawley rats; details: vulnerable animals vs vulnerable animals treated with vehicle
# Description: as §2
# When the rats were killed (at D57), blood from trunk vessels was collected into chilled tubes and corticosterone was quantified by RIA (ICN Biomedicals, Orsay, France), using [125I]corticosterone as a radiotracer (Andre et al., 2005). Adrenal glands were removed, dissected free of adhering fat, and weighed. Organ weights are expressed relative to body weights (mg gland/100 g body weight). Rats were decapitated at midday in a quiet separate room, one by one, with the bench cleaned between rats.
smiles,measurement,setting,value
"CC1(C)CC(O)CC(C)(C)N1[O] [TEMPOL, 4-hydroxy-2,2,6,6-tetramethylpiperidin-1-oxyl]",sweet water consumption,[1],prevented
same,catalase activity,[2],no effect
same,glutathione peroxidase (GPx) activity,[3],mild effect
same,oxidative stress,[4],decreased the oxidative stress in V animals
same,adrenal gland weight,[5],prevented the increase
same,corticosterone levels,[5],prevented the increase of corticosterone levels
